Data reported in patent US3987047A, “Tetrahydro-azepinoquinolines” (Boehringer Ingelheim GmbH, priority 1973, dated 1976).
Where a name gives a salt, the structure may show the parent alone.

Assays:
[1] = Acute toxicity (LD50 in mice); details: in vivo, sc; for selectivity ratio: LD50 mouse s.c. / anorectic ED50 rat s.c., read-out: Therapeutic ratio LD50/ED50; for LD50 at 24 h: mouse, 24 hours observation
Method: Groups of 10 male mice of the NMRI-strain with body weights between 18 and 30 gm. The animals were put individually into cylindrical jars and received by subcutaneous injection under the dorsal skin gradually increasing doses from 0.1 to 0.2 ml/10 gm of body weight of the test compound. The limits for the test dosage range had previously been determined on individual mice. The symptoms of poisoning were recorded. After an observation period of 24 hours the dead animals were counted. The determination of the median lethal dose (LD50) according to G. KARBER [Arch. exper. Path. Pharmak. 162, 480, (1931)] concluded the test.

Male albino rats = assay: Anorectic test (effect on food intake of fasted rats); type: in vivo; details: sc; rat; dose which reduced the food intake by 50% over the reference value; 2 hour test period
Method: Male albino rats with starting weights from 200 to 250 gm, kept in so-called makrolon-cages, three to a cage, in an air-conditioned room at a temperature of 22 ± 1° C and about 50 % relative humidity. Between test runs, food (standard feed Altromin R) and drinking water were freely accessible.
A combination metabolism and motility test cage, described by J. M. van ROSSUM and F. SIMONS (Psychopharmacologia 14, 248, 1969) was used. With the aid of this device it is possible to measure the food intake and motoric activity on the same test animal.
For effecting and evaluating this test, a modified version of the method of J. SPENGLER and P. WASER [Arch. exp. Path. Pharmcol. 237, 171 (1959)] was used. A test group consisting of 6 ats was used for the test over a 3months' period, once a week, always on the same day of the week and at the same time of day. In preparation for the test, the animals were fasted for 24 hours while they had free access to drinking water. Then, they were put singly into the above-mentioned test cage for 2 hours, where a preweighed quantity of feed (Altromin-R, pulverized) and drinking water was offered ad libitum. Scattered feed was collected carefully, the consumed quantity of feed was determined by weighing the remaining quantity, and the food intake was calculated in terms of grams per 100 gm body weight. the test compound was injected subcutaneously or administered orally by esophageal sound at the beginning of the test period. […] Therefore, each group served as its own control. In the control tests the rats were given at the beginning of the 2 hour test period, 0.1 ml/100 gm water orally or 0.1 ml/100 gm physiological NaCl-solution subcutaneously. Before the test runs, 3 to 4 control tests were made and repeated later at intervals of 5 weeks. The average amount of the food intake which the animals had shown in the control tests was taken as the reference value. The anorectic activity of the test compound was expressed in terms of the percentage reduction of this reference value, and the median anorectic dose (ED50), i.e. the dose which reduced the food intake by 50% over the reference value was graphically calculated.

SMILES	selectivity ratio [1]	LD50 at 24 h [1]	ED50 (Male albino rats)
CCN1CCc2nc3ccccc3c(C)c2CC1.Cl.Cl [A, 3-ethyl-1,2,4,5-tetrahydro-11-methyl-3H-azepino[4,5-b]quinoline dihydrochloride]	95	180 mg/kg	1.9 mg/kg
Cc1c2c(nc3ccccc13)CCCNC2.Cl.Cl [B, 2,3,4,5-tetrahydro-11-methyl-1H-azepino[4,3-b]quinoline dihydrochloride]	177	195 mg/kg	1.1 mg/kg
Cc1c2c(nc3ccccc13)CCNCC2.Cl.Cl [C, 1,2,4,5-tetrahydro-11-methyl-3H-azepino[4,5-b]quinoline dihydrochloride]	415	83 mg/kg	0.2 mg/kg
CCCc1c2c(nc3ccccc13)CCNCC2.Cl.Cl [Compound E, 1,2,4,5-tetrahydro-11-propyl-3H-azepino[4,5-b]quinoline dihydrochloride]	164	148 mg/kg	0.9 mg/kg
CCOC(=O)N1CCc2nc3ccccc3c(C)c2CC1 [D, 1,2,4,5-tetrahydro-11-methyl-3-azepino[4,5-b]quinoline-carboxylic acid ethyl ester]	1010	810 mg/kg	0.8 mg/kg
Cc1c2c(nc3ccc(Cl)cc13)CCNCC2.Cl.Cl [F, 9-chloro-1,2,4,5-tetrahydro-11-methyl-3H-azepino[4,5-b]quinoline dihydrochloride]	143	215 mg/kg	1.5 mg/kg
Cc1c2c([n+]([O-])c3ccccc13)CCNCC2 [G, 1,2,4,5-tetrahydro-11-methyl-3H-azepino[4,5-b]quinoline-6-N-oxide hydrochloride]	394	315 mg/kg	0.8 mg/kg
Cc1c2c(nc3ccccc13)C(O)CNCC2.Cl.Cl (stereo not drawn) [H, 5-hydroxy-1,2,4,5-tetrahydro-11-methyl-3H-azepino[4,5-b]quinoline dihydrochloride]	420	126 mg/kg	0.3 mg/kg
CCCN1CCc2nc3ccccc3c(C)c2CC1.Cl.Cl [I, 1,2,4,5-tetrahydro-11-methyl-3propyl-3H-azepino[4,5-b]quinoline dihydrochloride]	–	–	0.9 mg/kg
Cc1c2c(nc3ccccc13)CCN(C(=O)OC(C)(C)C)CC2.Cl [J, 1,2,4,5-tetrahydro-11-methyl-3azepino[4,5-b]quinoline-carboxylic acid tert.butyl ester hydrochloride]	–	–	1.1 mg/kg
Cc1c2c(nc3cccc(Cl)c13)CCNCC2 [K, 10-chloro-1,2,4,5-tetrahydro-11-methyl-3H-azepino[4,5-b]quinoline dihydrochloide]	–	–	1.3 mg/kg
CCOC(=O)N1CCc2c(nc3ccccc3c2C)C(O)C1 (stereo not drawn) [L, 5-hydroxy-1,2,4,5-tetrahydro-11-methyl-3-azepino[4,5-b]quinoline-carboxylic acid ethyl ester]	–	–	4 mg/kg
Cc1c2c(nc3ccccc13)CCN(CC(C)O)CC2.Cl.Cl (stereo not drawn) [M, 3-(2-hydroxy-propyl)-1,2,4,5-tetrahydro-11-methyl-3H-azepino[4,5-b]quinoline dihydrochloride]	–	–	2 mg/kg
COC(=O)N1CCc2nc3ccccc3c(C)c2CC1 [N, 1,2,4,5-tetrahydro-11-methyl-3-azepino[4,5-b]quinoline-carboxylic acid methyl ester]	–	–	1.8 mg/kg
